# Values joined by “and” are separate entries in the source; they are usually repeats but may differ in a detail not shown here. Equal values may be shown once.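 In this assay, cells in 96-well plates receive the compound at five concentrations for 48 hours. Endpoints are linearly interpolated between the surrounding concentrations. GI50 marks 50% less growth. TGI marks complete inhibition of growth.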
# What was measured:
# Experiment in all cases: DTP human tumour cell line panel, 48 h
# A549 NSCLC = system: A549 NSCLC
# SK-MEL-5 melanoma = system: SK-MEL-5 melanoma
# SF-295 CNS = system: SF-295 CNS
# SF-539 CNS = system: SF-539 CNS
# A498 renal = system: A498 renal
# SK-OV-3 ovarian = system: SK-OV-3 ovarian
# HOP-92 NSCLC = system: HOP-92 NSCLC
# NCI-H23 lung = system: NCI-H23 lung
# CAKI-1 renal = system: CAKI-1 renal
# HOP-62 NSCLC = system: HOP-62 NSCLC
# HL-60(TB) leukemia = system: HL-60(TB) leukemia
# SN12C renal = system: SN12C renal
# MALME-3M melanoma = system: MALME-3M melanoma
# DMS 114 small cell lung = system: DMS 114 small cell lung
# RPMI-8226 leukemia = system: RPMI-8226 leukemia
# CCRF-CEM leukemia = system: CCRF-CEM leukemia
# OVCAR-4 ovarian = system: OVCAR-4 ovarian
# SF-268 CNS = system: SF-268 CNS
# HCC-2998 colon = system: HCC-2998 colon
# IGROV1 ovarian = system: IGROV1 ovarian
# RXF 393 renal = system: RXF 393 renal
# NCI-H226 lung = system: NCI-H226 lung
# HOP-18 NSCLC = system: HOP-18 NSCLC
# OVCAR-3 ovarian = system: OVCAR-3 ovarian
# OVCAR-5 ovarian = system: OVCAR-5 ovarian
# TK-10 renal = system: TK-10 renal
# NCI-H522 lung = system: NCI-H522 lung
# DLD-1 colon = system: DLD-1 colon
# 786-0 renal = system: 786-0 renal
# DMS 273 small cell lung = system: DMS 273 small cell lung
# UACC-62 melanoma = system: UACC-62 melanoma
# OVCAR-8 ovarian = system: OVCAR-8 ovarian
# MOLT-4 leukemia = system: MOLT-4 leukemia
# K-562 leukemia = system: K-562 leukemia
# SR leukemia = system: SR leukemia
# SNB-78 CNS = system: SNB-78 CNS
# HT29 colon = system: HT29 colon
# ACHN renal = system: ACHN renal
# SNB-75 CNS = system: SNB-75 CNS
# M19-MEL melanoma = system: M19-MEL melanoma
# EKVX NSCLC = system: EKVX NSCLC
# LOX IMVI melanoma = system: LOX IMVI melanoma
# HCT-15 colon = system: HCT-15 colon
# SW-620 colon = system: SW-620 colon
# UACC-257 melanoma = system: UACC-257 melanoma
# KM12 colon = system: KM12 colon
# KM20L2 colon = system: KM20L2 colon
# UO-31 renal = system: UO-31 renal
# SK-MEL-2 melanoma = system: SK-MEL-2 melanoma
# HCT-116 colon = system: HCT-116 colon
# NCI-H460 lung = system: NCI-H460 lung
# SNB-19 CNS = system: SNB-19 CNS
# SK-MEL-28 melanoma = system: SK-MEL-28 melanoma
# COLO 205 colon = system: COLO 205 colon
# LXFL 529 NSCLC = system: LXFL 529 NSCLC
# U251 CNS = system: U251 CNS
# M14 melanoma = system: M14 melanoma
smiles,measurement,setting,value
Cc1cccc(NC(=O)C(=O)C2C(=O)NC(=O)NC2=O)c1C,TGI,A549 NSCLC,> 100 µM
same,TGI,SK-MEL-5 melanoma,> 100 µM
same,TGI,SF-295 CNS,> 100 µM
same,TGI,SF-539 CNS,> 100 µM
same,TGI,A498 renal,> 100 µM
same,TGI,SK-OV-3 ovarian,> 100 µM
same,TGI,HOP-92 NSCLC,> 100 µM
same,TGI,NCI-H23 lung,> 100 µM
same,TGI,CAKI-1 renal,> 100 µM
same,TGI,HOP-62 NSCLC,> 100 µM
same,TGI,HL-60(TB) leukemia,> 100 µM
same,TGI,SN12C renal,> 100 µM
same,TGI,MALME-3M melanoma,> 100 µM
same,TGI,DMS 114 small cell lung,> 100 µM
same,TGI,RPMI-8226 leukemia,> 100 µM
same,TGI,CCRF-CEM leukemia,> 100 µM
same,TGI,OVCAR-4 ovarian,> 100 µM
same,TGI,SF-268 CNS,> 100 µM
same,TGI,HCC-2998 colon,> 100 µM
same,TGI,IGROV1 ovarian,> 100 µM
same,TGI,RXF 393 renal,> 100 µM
same,TGI,NCI-H226 lung,> 100 µM
same,TGI,HOP-18 NSCLC,> 100 µM
same,TGI,OVCAR-3 ovarian,> 100 µM
same,TGI,OVCAR-5 ovarian,> 100 µM
same,TGI,TK-10 renal,> 100 µM
same,TGI,NCI-H522 lung,> 100 µM
same,TGI,DLD-1 colon,> 100 µM
same,TGI,786-0 renal,> 100 µM
same,TGI,DMS 273 small cell lung,> 100 µM
same,TGI,UACC-62 melanoma,> 100 µM
same,TGI,OVCAR-8 ovarian,> 100 µM
same,TGI,MOLT-4 leukemia,> 100 µM
same,TGI,K-562 leukemia,> 100 µM
same,TGI,SR leukemia,> 100 µM
same,TGI,SNB-78 CNS,> 100 µM
same,TGI,HT29 colon,> 100 µM
same,TGI,ACHN renal,> 100 µM
same,TGI,SNB-75 CNS,> 100 µM
same,TGI,M19-MEL melanoma,> 100 µM
same,TGI,EKVX NSCLC,> 100 µM
same,TGI,LOX IMVI melanoma,> 100 µM
same,TGI,HCT-15 colon,> 100 µM
same,TGI,SW-620 colon,> 100 µM
same,TGI,UACC-257 melanoma,> 100 µM
same,TGI,KM12 colon,> 100 µM
same,TGI,KM20L2 colon,> 100 µM
same,TGI,UO-31 renal,> 100 µM
same,TGI,SK-MEL-2 melanoma,> 100 µM
same,TGI,HCT-116 colon,> 100 µM
same,TGI,NCI-H460 lung,> 100 µM
same,TGI,SNB-19 CNS,> 100 µM
same,TGI,SK-MEL-28 melanoma,> 100 µM
same,TGI,COLO 205 colon,> 100 µM
same,TGI,LXFL 529 NSCLC,> 100 µM
same,TGI,U251 CNS,> 100 µM
same,TGI,M14 melanoma,> 100 µM
CCOc1ccc2[nH]c3c(C)c4cc[n+](C)cc4c(C)c3c2c1,TGI,A549 NSCLC,43.9 µM and > 100 µM
same,TGI,SK-MEL-5 melanoma,4.37 µM and 4.31 µM
same,TGI,SF-295 CNS,0.672 µM and 1.55 µM
same,TGI,SF-539 CNS,1.63 µM and 2.65 µM
same,GI50,A498 renal,11.1 µM and 48 µM
same,TGI,A498 renal,> 100 µM
same,TGI,SK-OV-3 ovarian,60.6 µM and 56.3 µM
same,TGI,HOP-92 NSCLC,13.1 µM and 25.3 µM
same,TGI,NCI-H23 lung,3.38 µM and 3.31 µM
same,TGI,CAKI-1 renal,> 35.3 µM
same,GI50,HOP-62 NSCLC,0.415 µM and 1.12 µM
same,TGI,HOP-62 NSCLC,4.76 µM and 6.01 µM
same,TGI,HL-60(TB) leukemia,29.9 µM and > 52.2 µM
same,TGI,SN12C renal,1.25 µM and 2.69 µM
same,GI50,MALME-3M melanoma,0.417 µM and 1.43 µM
same,TGI,MALME-3M melanoma,3.18 µM and 4.52 µM
same,GI50,DMS 114 small cell lung,0.48 µM and 1.24 µM
same,TGI,DMS 114 small cell lung,2.74 µM and 4.7 µM
same,TGI,RPMI-8226 leukemia,> 86.8 µM
same,TGI,CCRF-CEM leukemia,23.7 µM and 37.3 µM
same,TGI,OVCAR-4 ovarian,15.2 µM and 26.2 µM
same,TGI,SF-268 CNS,0.605 µM and 1.18 µM
same,TGI,HCC-2998 colon,10.6 µM and 16.2 µM
same,TGI,IGROV1 ovarian,32 µM and > 44.7 µM
same,TGI,RXF 393 renal,> 100 µM
same,TGI,NCI-H226 lung,0.965 µM and 2.88 µM
same,TGI,HOP-18 NSCLC,33.6 µM and 49.2 µM
same,TGI,OVCAR-3 ovarian,22.5 µM and 51.7 µM
same,GI50,OVCAR-5 ovarian,10.3 µM and 38.8 µM
same,TGI,OVCAR-5 ovarian,> 100 µM
same,GI50,TK-10 renal,9.4 µM and 26.6 µM
same,TGI,TK-10 renal,81.6 µM and > 100 µM
same,TGI,NCI-H522 lung,3.05 µM and 3.57 µM
same,TGI,DLD-1 colon,> 100 µM
same,TGI,786-0 renal,1.62 µM and 2.43 µM
same,GI50,DMS 273 small cell lung,0.651 µM and 1.33 µM
same,TGI,DMS 273 small cell lung,6.33 µM and 13.8 µM
same,TGI,UACC-62 melanoma,5.48 µM and 12.3 µM
same,GI50,OVCAR-8 ovarian,0.236 µM and 0.51 µM
same,TGI,OVCAR-8 ovarian,9.87 µM and 11.6 µM
same,GI50,MOLT-4 leukemia,1.11 µM and 2.69 µM
same,TGI,MOLT-4 leukemia,21.6 µM and > 56 µM
same,TGI,K-562 leukemia,24.5 µM and 18.3 µM
same,GI50,SR leukemia,1.13 µM and 2.69 µM
same,TGI,SR leukemia,13.7 µM and > 62.5 µM
same,TGI,SNB-78 CNS,> 100 µM
same,TGI,HT29 colon,28.4 µM and 32.7 µM
same,GI50,ACHN renal,6.04 µM and 17.5 µM
same,TGI,ACHN renal,> 100 µM
same,GI50,SNB-75 CNS,0.18 µM and 0.0795 µM
same,TGI,SNB-75 CNS,0.452 µM and 0.291 µM
same,GI50,M19-MEL melanoma,0.557 µM and 1.5 µM
same,TGI,M19-MEL melanoma,2.27 µM and 4.23 µM
same,TGI,EKVX NSCLC,> 100 µM
same,GI50,LOX IMVI melanoma,2.99 µM and 11.4 µM
same,TGI,LOX IMVI melanoma,19.4 µM and > 67.1 µM
same,GI50,HCT-15 colon,6.05 µM and > 35.6 µM
same,TGI,HCT-15 colon,> 100 µM
same,TGI,SW-620 colon,15.6 µM and > 83.8 µM
same,TGI,UACC-257 melanoma,13.7 µM and 27.8 µM
same,TGI,KM12 colon,14.4 µM and 21.6 µM
same,TGI,KM20L2 colon,47.8 µM and > 96.8 µM
same,TGI,UO-31 renal,> 100 µM
same,TGI,SK-MEL-2 melanoma,2.53 µM and 8.79 µM
same,TGI,HCT-116 colon,18.5 µM and > 37.7 µM
same,TGI,NCI-H460 lung,11.5 µM and 12.6 µM
same,GI50,SNB-19 CNS,0.297 µM and 0.707 µM
same,TGI,SNB-19 CNS,1.26 µM and 3.37 µM
same,TGI,SK-MEL-28 melanoma,7.9 µM and 13 µM
same,GI50,COLO 205 colon,0.791 µM and 1.6 µM
same,TGI,COLO 205 colon,2.62 µM and 4.69 µM
same,TGI,LXFL 529 NSCLC,1.54 µM and 3.6 µM
same,TGI,U251 CNS,1.08 µM and 1.15 µM
same,TGI,M14 melanoma,30.5 µM and 58.5 µM

# Source: PubChem BioAssay (NCI)
